This note sets out measurements from patent publication US20120283334A1, “Treatment of Viral Infections” (Biocopea, Ltd., priority 2009, published 2012).

“Also recorded” adds a separate entry of the source. A value given as a limit tells only on which side of the number the result lay.

Test [1] deals with TNF-α. Kind of test: TNF-α levels in PBMC under LPS stimulation (ELISA). The following applies: for Percentage TNF-α levels compared to 100% untreated cells under LPS stimulation: PBMC; for concentration of TNF-α in LPS stimulated cells: text summary of Table 2, concentration not stated. It counts as cell-based, human. As to the method:
1) Isolation, Culture and Treatment of Peripheral Blood Mononuclear Cells (PBMC) Blood was collected in 6 ml vacutainers (green cap). Blood was processed within 2 h of collection. Materials used: Non-coagulated blood; FCS; RPMI-1640 media supplemented with L-Gln and P/S; PBS; sterile tips and pipettes; Sterile 15 ml Falcon; Sterile V-bottom 96-well plates with lids; Neubauer chamber; Trypan Blue solution; 70% IPA solution; Accuspin-Histopaque tubes (Sigma, A7054) Procedure: • 1. Dilute samples 1:1 in sterile PBS; • 2. Add 30 ml of diluted blood into an Accuspin-Histopaque tube (Sigma, A7054); • 3. Centrifuge at 800 rcf 15min at room temperature (RT); • 4. After centrifugation, the red blood cells will remain at the bottom below the frit. The monocytes (PBMC) will be present on a layer above the frit, with the plasma on top; • 5. Collect the PBMC layer with a pipette into a fresh 15 ml Falcon tube and top up to 15 ml of PBS; • 6. Centrifuge at 250 rcf 10 min at RT; • 7. Discard the supernatant, flick the pellet and add another 10 ml of PBS; • 8. Centrifuge at 250 rcf 10 min at RT; • 9. Repeat steps 7 and 8; • 10. […] Count cells and make a 4×10^6 cell/ml suspension in complete medium. Add 100 μl of cell suspension per well in a V-bottom 96-well plate. Then add 50 μl of stimulant or vehicle in complete media, and 50 μl of drug or vehicle in complete media. Incubate the cells for 24 h at 37° C. 5% CO2; • 12. After incubation, take 60 μl of cell supernatant to measure IFNγ and TNFα by ELISA (OptEIA human IFNγ, cat No. 555142 and human TNF, Cat No. 555212) following manufacturer's instructions (BD Biosciences); The two mitogens that the inventors used to stimulate lymphocytes, and therefore assess immune function, were lipopolysaccharide (LPS) and Concanavalin A (Con A). LPS acts on B cells but not T cells, whereas Con A acts on T cells but not B cells. The effects of two embodiments of the compound represented by formula I, i.e. dobutamine (referred to in the tables as BC1021) and ritodrine (BC1023), on the levels of IFN-γ and TNF-α were investigated in LPS and Con A stimulated assays. Peripheral Blood Mononuclear Cells (PMBC) were independently administered with each mitogen, LPS or Con A, and then treated with either dobutamine or ritodrine. Control experiments were conducted in which no LPS or Con A was added, such that any effect on the levels of IFN-γ and TNF-α could be directly attributed to the presence of the test compound, dobutamine or ritodrine. The values in the Tables are expressed as the percentage value of the LPS only control. […] Standard deviation values (s.d.) are given underneath each value of expressed IFN-γ levels.

Test [2] concerns Influenza A/PR/8/34 (H1N1 virus). Briefly: In vivo mouse influenza challenge, dobutamine and ritodrine intra-peritoneal. Particulars: H1N1-infected mice; for Sum Total Morbidity: FIG. 3. On the procedure: 5) In Vivo Mouse Studies Using Dobutamine
Protocol: Fifty (50) C57BL/6 female mice (6-7 weeks old), were divided into […] experimental groups containing ten (10) animals each. On day 1, animals received an intranasal lethal dose (50 μl total, 25 μl nostril) of Influenza A/PR/8/34 under halothane induced anesthesia. On Day 3, animals received one intra-peritoneal injection (100-150 μl) of the test compound. On Day 4 or 5, all animals still alive received a second intra-peritoneal injection (100-150 μl) of the test compound.
All animals were assessed daily for morbidity, weight loss and survival from Day 1 until at least Day 6. Morbidity variables (i.e. Body Condition, Posture, Activity, Piloerection, Respiration, Vocalisation, Ataxia and Oculo/Nasal Discharges) were recorded according to the following scale of severity: Normal (0), Mild (1), Laboured (2) and Severe/Cull-point (3).
Using standard techniques as described above, mice were infected with a H1N1 virus which was allowed to become established in each of the subjects. Each test mouse was then treated with dobutamine (BC1021) either with a single dose on day 3 after infection with the virus, or as two doses, one on day 3 and one on day 4 after infection. In the control mice, no dobutamine was administered. The weight loss of both treated and untreated mice was then determined.
The inventors also investigated the effects of dobutamine (single and double doses) as well as ritodrine (single and double doses) on the Sum Total Morbidity of the tested mice. Referring to FIG. 3, there are shown the data of these experiments. The value of Sum Total Morbidity corresponds to a confidence value of the general “wellness” of the mice, and takes into account the quality of the fur and grooming of the mice, and whether or not the mice are able to feed and walk. Measurement of Morbidity values will be known to the skilled technician.

The mark [3] stands for this setting: two doses on days 3 and 4 (Groups C and E).

In the case of `CC(CCc1ccc(O)cc1)NCCc1ccc(O)c(O)c1` (stereo not shown) [BC1021, dobutamine], the “Percentage TNF-α levels compared to 100% untreated cells under LPS stimulation” value in test [1] (+ LPS, compound 1 μM, 24 h) was 91.20%; in test [1] (+ LPS, compound 10 μM, 24 h), 84.79%; in test [1] (+ LPS, compound 100 μM, 24 h) it was 81.41%; in test [1] (compound only (no LPS), 1 μM) it was −80.18%; in test [1] (compound only (no LPS), 10 μM), −145.07%; in test [1] (compound only (no LPS), 100 μM), −151.15%. Besides, the “concentration of TNF-α in LPS stimulated cells” value in test [1] was “decreased”. For the same compound, the “Sum Total Morbidity” value in test [2] (all doses, single or double) is “improvement of the morbidity value”; in test [2] (setting [3]), “the most improvements; also recorded: the most effective”. Moreover, in test [2] (single dose on day 3, FIG. 1), the “effect on weight loss” value is on record as “little effect”. Also, the “percentage survival of mice” value in test [2] (single dose on day 3, FIG. 2) is given as “little effect”; in test [2] (two doses, day 3 and day 4, FIG. 2) it was “higher survival rate than the control”. Also, the “lower reduction in weight loss than the control mice” value in test [2] (two doses on days 3 and 4 after infection, FIG. 1) is reported as not below 10%.

Take `CC(NCCc1ccc(O)cc1)C(O)c1ccc(O)cc1` (stereo not shown) [BC1023, ritodrine]: the “Percentage TNF-α levels compared to 100% untreated cells under LPS stimulation” value was 62.12% in test [1] (+ LPS, compound 1 μM, 24 h); 85.01% in test [1] (+ LPS, compound 10 μM, 24 h); 85.74% in test [1] (+ LPS, compound 100 μM, 24 h); −29.75% in test [1] (compound only (no LPS), 1 μM); 0.74% in test [1] (compound only (no LPS), 10 μM); −56.57% in test [1] (compound only (no LPS), 100 μM). Also, the “concentration of TNF-α in LPS stimulated cells” value in test [1] was “decreased”. The “Sum Total Morbidity” value was “improvement of the morbidity value” in test [2] (all doses, single or double) and “the most improvements” in test [2] (setting [3]).
